# Publication PMC5218480 (PLoS ONE, 2017)
# Test system: MV-4-11 cells
# Experiment: Gene expression microarray analysis (Affymetrix PrimeView) and GSEA
# Type: cell-based, human
# Set-up: RFU PODN (11730768_x_at) / Fold change /veh PODN (11730768_x_at) / RFU LINC00158 (11744669_a_at) / Fold change /veh LINC00158 (11744669_a_at) / RFU DUSP10 (11751237_a_at) / Fold change /veh DUSP10 (11751237_a_at) / RFU ID3 (11757404_x_at) / Fold change /veh ID3 (11757404_x_at) / RFU PLEKHG5 (11737974_s_at) / Fold change /veh PLEKHG5 (11737974_s_at) / RFU LRRC4B (11730491_at) / Fold change /veh LRRC4B (11730491_at) / RFU GIMAP4 (11747438_a_at) / Fold change /veh GIMAP4 (11747438_a_at) / RFU KRT8 (11758183_x_at) / Fold change /veh KRT8 (11758183_x_at) / RFU CNN1 (11734310_a_at) / Fold change /veh CNN1 (11734310_a_at) / RFU VPS37D (11726825_at) / Fold change /veh VPS37D (11726825_at) / RFU C10orf10 (11716522_x_at) / Fold change /veh C10orf10 (11716522_x_at) / RFU KIR2DL2 /// KIR2DL4 /// KIR2DL5A /// KIR2DL5B /// KIR2DS1 /// KIR2DS2 /// KIR2DS3 /// KIR2DS4 /// KIR3DL3 /// KIR3DL3 /// KIR3DS1 (11738374_at) / Fold change /veh KIR2DL2 /// KIR2DL4 /// KIR2DL5A /// KIR2DL5B /// KIR2DS1 /// KIR2DS2 /// KIR2DS3 /// KIR2DS4 /// KIR3DL3 /// KIR3DL3 /// KIR3DS1 (11738374_at) / RFU C1QL1 (11718748_at) / Fold change /veh C1QL1 (11718748_at) / RFU TMPRSS4 (11747572_a_at) / Fold change /veh TMPRSS4 (11747572_a_at) / RFU HAMP (11756126_x_at) / Fold change /veh HAMP (11756126_x_at) / RFU RNFT2 (11725882_a_at) / Fold change /veh RNFT2 (11725882_a_at) / RFU NR4A2 (11747474_a_at) / Fold change /veh NR4A2 (11747474_a_at) / RFU ABCC12 (11746883_a_at) / Fold change /veh ABCC12 (11746883_a_at) / RFU TMEM136 (11760407_x_at) / Fold change /veh TMEM136 (11760407_x_at) / RFU CLDN22 /// WWC2 (11732394_at) / Fold change /veh CLDN22 /// WWC2 (11732394_at) / RFU HLA-DPB1 (11760878_x_at) / Fold change /veh HLA-DPB1 (11760878_x_at) / RFU SPINT1 (11716480_a_at) / Fold change /veh SPINT1 (11716480_a_at) / RFU GAP43 (11754022_s_at) / Fold change /veh GAP43 (11754022_s_at) / RFU A4GNT (11735810_at) / Fold change /veh A4GNT (11735810_at) / RFU PRB3 (11715151_x_at) / Fold change /veh PRB3 (11715151_x_at) / RFU TUBB4B (11761932_at) / Fold change /veh TUBB4B (11761932_at) / RFU CAPN14 (11732068_a_at) / Fold change /veh CAPN14 (11732068_a_at) / RFU TMCC2 (11721928_a_at) / Fold change /veh TMCC2 (11721928_a_at) / RFU IRGQ (11745062_a_at) / Fold change /veh IRGQ (11745062_a_at) / RFU FAM174B (11720279_a_at) / Fold change /veh FAM174B (11720279_a_at) / RFU TMPRSS4 (11748680_a_at) / Fold change /veh TMPRSS4 (11748680_a_at) / RFU FAM212B (11763350_a_at) / Fold change /veh FAM212B (11763350_a_at) / RFU PLEKHG5 (11743358_a_at) / Fold change /veh PLEKHG5 (11743358_a_at) / RFU ZSCAN30 (11745921_a_at) / Fold change /veh ZSCAN30 (11745921_a_at) / RFU CMKLR1 (11741424_a_at) / Fold change /veh CMKLR1 (11741424_a_at) / RFU LOC101060620 /// MAPK8IP1 (11723275_at) / Fold change /veh LOC101060620 /// MAPK8IP1 (11723275_at) / RFU SPTSSB (11747773_x_at) / Fold change /veh SPTSSB (11747773_x_at) / RFU PRSS12 (11739890_at) / Fold change /veh PRSS12 (11739890_at) / RFU BIN1 (11741810_x_at) / Fold change /veh BIN1 (11741810_x_at) / RFU WNT11 (11732464_a_at) / Fold change /veh WNT11 (11732464_a_at) / RFU C10orf10 (11716521_a_at) / Fold change /veh C10orf10 (11716521_a_at) / RFU C5orf56 (11738089_at) / Fold change /veh C5orf56 (11738089_at) / RFU CYB561 (11721691_x_at) / Fold change /veh CYB561 (11721691_x_at) / RFU ANKRD19P (11752326_a_at) / Fold change /veh ANKRD19P (11752326_a_at) / RFU OR2T12 /// OR2T33 /// OR2T8 (11738714_s_at) / Fold change /veh OR2T12 /// OR2T33 /// OR2T8 (11738714_s_at) / RFU VCAN (11748164_a_at) / Fold change /veh VCAN (11748164_a_at) / RFU JSRP1 (11732532_at) / Fold change /veh JSRP1 (11732532_at) / RFU KRTAP10-11 (11738290_x_at) / Fold change /veh KRTAP10-11 (11738290_x_at) / RFU MYO3A (11730013_a_at) / Fold change /veh MYO3A (11730013_a_at) / RFU EBF3 (11725865_a_at) / Fold change /veh EBF3 (11725865_a_at) / RFU CAMK2N1 (11719241_x_at) / Fold change /veh CAMK2N1 (11719241_x_at) / RFU C5orf56 (11738088_a_at) / Fold change /veh C5orf56 (11738088_a_at) / RFU OLFML3 (11715873_a_at) / Fold change /veh OLFML3 (11715873_a_at) / RFU LOC100653217 /// NTM (11731650_a_at) / Fold change /veh LOC100653217 /// NTM (11731650_a_at) / RFU MAPK11 (11762145_a_at) / Fold change /veh MAPK11 (11762145_a_at) / RFU FIZ1 (11724087_x_at) / Fold change /veh FIZ1 (11724087_x_at) / RFU OASL (11726364_x_at) / Fold change /veh OASL (11726364_x_at) / RFU SOX15 (11748057_x_at) / Fold change /veh SOX15 (11748057_x_at) / RFU CD79A (11719716_a_at) / Fold change /veh CD79A (11719716_a_at) / RFU HIST1H1D (11736915_at) / Fold change /veh HIST1H1D (11736915_at) / RFU CASKIN2 (11723855_a_at) / Fold change /veh CASKIN2 (11723855_a_at) / RFU LOC730098 (11760151_x_at) / Fold change /veh LOC730098 (11760151_x_at) / RFU OR4N2 (11742367_at) / Fold change /veh OR4N2 (11742367_at) / RFU PRRT2 (11749266_a_at) / Fold change /veh PRRT2 (11749266_a_at) / RFU SNX32 (11753110_a_at) / Fold change /veh SNX32 (11753110_a_at) / RFU CDHR5 (11726645_a_at) / Fold change /veh CDHR5 (11726645_a_at) / RFU RCAN1 (11760418_a_at) / Fold change /veh RCAN1 (11760418_a_at) / RFU FAM167A (11723789_a_at) / Fold change /veh FAM167A (11723789_a_at) / RFU FAM26E (11764081_at) / Fold change /veh FAM26E (11764081_at) / RFU ISYNA1 (11749810_s_at) / Fold change /veh ISYNA1 (11749810_s_at) / RFU ACY1 (11761880_at) / Fold change /veh ACY1 (11761880_at) / RFU 11764098_at / Fold change /veh 11764098_at / RFU SAMD14 (11745864_x_at) / Fold change /veh SAMD14 (11745864_x_at) / RFU NPB (11741838_a_at) / Fold change /veh NPB (11741838_a_at) / RFU TMPRSS6 (11731388_a_at) / Fold change /veh TMPRSS6 (11731388_a_at) / RFU KRTAP10-2 (11738614_at) / Fold change /veh KRTAP10-2 (11738614_at) / RFU ARHGAP8 /// PRR5-ARHGAP8 (11727945_x_at) / Fold change /veh ARHGAP8 /// PRR5-ARHGAP8 (11727945_x_at) / RFU KRTAP5-7 /// NADSYN1 (11734609_at) / Fold change /veh KRTAP5-7 /// NADSYN1 (11734609_at) / RFU RASL12 (11751679_a_at) / Fold change /veh RASL12 (11751679_a_at) / RFU CDKN2B (11736163_a_at) / Fold change /veh CDKN2B (11736163_a_at) / RFU PRF1 (11729649_at) / Fold change /veh PRF1 (11729649_at) / RFU, ZNF638 /// ZNF638-IT1 / Fold change vs veh, ZNF638 /// ZNF638-IT1 / RFU, PANK3 / Fold change vs veh, PANK3 / RFU, SH3YL1 / Fold change vs veh, SH3YL1 / RFU, ZEB2 / Fold change vs veh, ZEB2 / RFU, NRIP1 / Fold change vs veh, NRIP1 / RFU, PTTG1IP / Fold change vs veh, PTTG1IP / RFU, CAPN2 / Fold change vs veh, CAPN2 / RFU, MED14 / Fold change vs veh, MED14 / RFU, SNORA58 / Fold change vs veh, SNORA58 / RFU, C1orf63 / Fold change vs veh, C1orf63 / RFU, LRRFIP1 / Fold change vs veh, LRRFIP1 / RFU, NDUFAF7 / Fold change vs veh, NDUFAF7 / RFU, SLC12A2 / Fold change vs veh, SLC12A2 / RFU, IBTK / Fold change vs veh, IBTK / RFU, ESF1 / Fold change vs veh, ESF1 / Fold change vs veh, TMEM50B / RFU, TAOK1 / Fold change vs veh, TAOK1 / RFU, ACBD3 / Fold change vs veh, ACBD3 / RFU, TMA16 / Fold change vs veh, TMA16 / RFU, RWDD3 / Fold change vs veh, RWDD3 / RFU, BCAT1 / Fold change vs veh, BCAT1 / RFU, EDEM3 / Fold change vs veh, EDEM3 / RFU, TMEM33 / Fold change vs veh, TMEM33 / RFU, WDR75 / Fold change vs veh, WDR75 / RFU, AHCTF1 / Fold change vs veh, AHCTF1 / RFU, TFRC / Fold change vs veh, TFRC / RFU, ZDHHC17 / Fold change vs veh, ZDHHC17 / RFU, NOM1 / Fold change vs veh, NOM1 / RFU, ARL8B / Fold change vs veh, ARL8B / RFU, ZBTB11 / Fold change vs veh, ZBTB11 / RFU, TAMM41 / Fold change vs veh, TAMM41 / RFU, KIAA1704 /// LOC100996395 / Fold change vs veh, KIAA1704 /// LOC100996395 / RFU, ING1 / Fold change vs veh, ING1 / RFU, TRMT61B / Fold change vs veh, TRMT61B / RFU, FUBP3 / Fold change vs veh, FUBP3 / RFU, TP53 / Fold change vs veh, TP53 / RFU, TNKS2 / Fold change vs veh, TNKS2 / RFU, ZFP14 / Fold change vs veh, ZFP14 / RFU, ACTR2 / Fold change vs veh, ACTR2 / RFU, PPP3R1 / Fold change vs veh, PPP3R1 / RFU, PIK3R1 / Fold change vs veh, PIK3R1 / RFU, HNRNPA1 / Fold change vs veh, HNRNPA1 / RFU, RNF170 / Fold change vs veh, RNF170 / RFU, ZNF28 / Fold change vs veh, ZNF28 / RFU, RNGTT / Fold change vs veh, RNGTT / RFU, OGT / Fold change vs veh, OGT / RFU, BRD1 / Fold change vs veh, BRD1 / RFU, MARS / Fold change vs veh, MARS / RFU, ZNF655 / Fold change vs veh, ZNF655 / RFU, FAHD1 / Fold change vs veh, FAHD1 / RFU, BDP1 / Fold change vs veh, BDP1 / RFU, LRRCC1 / Fold change vs veh, LRRCC1 / RFU, ARID1A / Fold change vs veh, ARID1A / RFU, ZNF146 / Fold change vs veh, ZNF146 / RFU, ZNF330 / Fold change vs veh, ZNF330 / RFU, GPN3 / Fold change vs veh, GPN3 / RFU, C9orf123 / Fold change vs veh, C9orf123 / RFU, N4BP2L2 / Fold change vs veh, N4BP2L2 / RFU, ARFIP1 / Fold change vs veh, ARFIP1 / RFU, FAM179B / Fold change vs veh, FAM179B / RFU, BCL10 / Fold change vs veh, BCL10 / RFU, UHRF1BP1L / Fold change vs veh, UHRF1BP1L / RFU, BET1 / Fold change vs veh, BET1 / RFU, CNOT2 / Fold change vs veh, CNOT2 / RFU, ZNF268 / Fold change vs veh, ZNF268 / Fold change vs veh, ZNF507 / RFU, DGCR2 / Fold change vs veh, DGCR2 / RFU, WDSUB1 / Fold change vs veh, WDSUB1 / Fold change vs veh, HSP90B1 /// MIR3652 / RFU, ADSS / Fold change vs veh, ADSS / RFU, GK / Fold change vs veh, GK / RFU, ZNF148 / Fold change vs veh, ZNF148 / RFU, TAF9 / Fold change vs veh, TAF9 / RFU, SLC1A5 / Fold change vs veh, SLC1A5 / RFU, SLMO2 / Fold change vs veh, SLMO2 / RFU, ABCC4 / Fold change vs veh, ABCC4 / RFU, LOC101060439 /// RAP1B / Fold change vs veh, LOC101060439 /// RAP1B / RFU, RFX7 / Fold change vs veh, RFX7 / RFU, GTPBP10 / Fold change vs veh, GTPBP10 / RFU, CNEP1R1 / Fold change vs veh, CNEP1R1 / RFU, BIVM-ERCC5 /// ERCC5 / Fold change vs veh, BIVM-ERCC5 /// ERCC5 / RFU, ILF3 / Fold change vs veh, ILF3 / RFU 11762660_at / Fold change /veh 11762660_at / RFU VCAN (11757783_s_at) / Fold change /veh VCAN (11757783_s_at) / RFU DDX43 (11728927_at) / Fold change /veh DDX43 (11728927_at) / RFU KRT8 (11758188_x_at) / Fold change /veh KRT8 (11758188_x_at) / RFU NKD1 (11759106_at) / Fold change /veh NKD1 (11759106_at) / RFU SRD5A1 (11742802_a_at) / Fold change /veh SRD5A1 (11742802_a_at) / RFU TPSAB1 /// TPSB2 (11721975_s_at) / Fold change /veh TPSAB1 /// TPSB2 (11721975_s_at) / RFU GSTM3 (11746129_a_at) / Fold change /veh GSTM3 (11746129_a_at) / RFU IL23R (11737362_x_at) / Fold change /veh IL23R (11737362_x_at) / RFU TMEM51 (11727254_a_at) / Fold change /veh TMEM51 (11727254_a_at) / RFU PIWIL2 (11732686_x_at) / Fold change /veh PIWIL2 (11732686_x_at) / RFU ORM1 (11744905_x_at) / Fold change /veh ORM1 (11744905_x_at) / RFU CCDC152 (11743942_at) / Fold change /veh CCDC152 (11743942_at) / RFU ECM1 (11717891_a_at) / Fold change /veh ECM1 (11717891_a_at) / RFU IL23R (11748794_a_at) / Fold change /veh IL23R (11748794_a_at) / RFU TNFAIP8L3 (11732012_x_at) / Fold change /veh TNFAIP8L3 (11732012_x_at) / RFU MBOAT4 (11741988_at) / Fold change /veh MBOAT4 (11741988_at) / RFU 11764193_at / Fold change /veh 11764193_at / RFU TMEM53 (11763286_at) / Fold change /veh TMEM53 (11763286_at) / RFU MAGEB2 (11727129_at) / Fold change /veh MAGEB2 (11727129_at) / RFU TMEM200A (11744735_a_at) / Fold change /veh TMEM200A (11744735_a_at) / RFU CCDC152 (11751479_a_at) / Fold change /veh CCDC152 (11751479_a_at) / RFU FAM211A (11726209_a_at) / Fold change /veh FAM211A (11726209_a_at) / RFU RGS16 (11746705_a_at) / Fold change /veh RGS16 (11746705_a_at) / RFU VCAN (11755009_s_at) / Fold change /veh VCAN (11755009_s_at) / RFU RHOB (11743442_s_at) / Fold change /veh RHOB (11743442_s_at) / RFU RGS16 (11720943_a_at) / Fold change /veh RGS16 (11720943_a_at) / RFU RGS16 (11720944_at) / Fold change /veh RGS16 (11720944_at) / RFU, VPS4B / Fold change vs veh, VPS4B / RFU, CREB1 / Fold change vs veh, CREB1 / RFU, DNAJC13 / Fold change vs veh, DNAJC13 / RFU, GNAQ / Fold change vs veh, GNAQ / RFU, CDK5R1 / Fold change vs veh, CDK5R1 / RFU, ZRANB3 / Fold change vs veh, ZRANB3 / RFU, CUL4A / Fold change vs veh, CUL4A / RFU, CCNY / Fold change vs veh, CCNY / RFU, UFL1 / Fold change vs veh, UFL1 / RFU, COG3 / Fold change vs veh, COG3 / RFU, DIAPH2 / Fold change vs veh, DIAPH2 / RFU, SKA2 / Fold change vs veh, SKA2 / RFU, AFF3 / Fold change vs veh, AFF3 / RFU, LMF1 / Fold change vs veh, LMF1 / RFU, IPO11 / Fold change vs veh, IPO11 / RFU, DFFB / Fold change vs veh, DFFB / RFU, FOXP1 / Fold change vs veh, FOXP1 / RFU, CARD8 / Fold change vs veh, CARD8 / RFU, STRN3 / Fold change vs veh, STRN3 / RFU, ADK / Fold change vs veh, ADK / RFU, RASSF2 / Fold change vs veh, RASSF2 / RFU, WIPF1 / Fold change vs veh, WIPF1 / RFU, LARP1B / Fold change vs veh, LARP1B / RFU, RASA1 / Fold change vs veh, RASA1 / RFU, RB1 / Fold change vs veh, RB1 / RFU, PPFIA1 / Fold change vs veh, PPFIA1 / RFU, MAT2A / Fold change vs veh, MAT2A / RFU, CCT5 / Fold change vs veh, CCT5 / RFU, WDR92 / Fold change vs veh, WDR92 / RFU, CUX1 / Fold change vs veh, CUX1 / RFU, TTC7A / Fold change vs veh, TTC7A / RFU, TMEM135 / Fold change vs veh, TMEM135 / RFU, DEPTOR / Fold change vs veh, DEPTOR / RFU, CPM / Fold change vs veh, CPM / RFU, DNAJB6 / Fold change vs veh, DNAJB6 / RFU, CACNA2D3 / Fold change vs veh, CACNA2D3 / RFU, DTX4 / Fold change vs veh, DTX4 / RFU, TFCP2 / Fold change vs veh, TFCP2 / RFU, GMCL1 /// GMCL1P1 / Fold change vs veh, GMCL1 /// GMCL1P1 / RFU, AEBP2 / Fold change vs veh, AEBP2 / RFU, SNHG1 /// SNORD22 /// SNORD25 /// SNORD26 /// SNORD27 /// SNORD28 /// SNORD29 /// SNORD31 / Fold change vs veh, SNHG1 /// SNORD22 /// SNORD25 /// SNORD26 /// SNORD27 /// SNORD28 /// SNORD29 /// SNORD31 / Fold change (Aza/veh), C12orf56 (ProbeSet 11735607_a_at) / Fold change (ACY-1035/veh), C12orf56 (ProbeSet 11735607_a_at) / Fold change (Aza/veh), FGFR1OP (ProbeSet 11751329_s_at) / Fold change (ACY-1035/veh), FGFR1OP (ProbeSet 11751329_s_at) / Fold change (Aza/veh), VPS36 (ProbeSet 11739960_a_at) / Fold change (ACY-1035/veh), VPS36 (ProbeSet 11739960_a_at) / RFU SYPL1 (11715823_x_at) / Fold change /veh SYPL1 (11715823_x_at) / RFU IGFBP7 (11715501_s_at) / Fold change /veh IGFBP7 (11715501_s_at) / RFU REEP3 (11722064_at) / Fold change /veh REEP3 (11722064_at) / RFU IGLL1 (11728026_x_at) / Fold change /veh IGLL1 (11728026_x_at): dose or concentration left out as unconfirmed
# Conditions: ProbeSet 11716865_a_at; LIST B
compound,measurement,value
Nc1ccc(-c2cccs2)cc1NC(=O)c1ccc2c(c1)cc(C1CC1)n2CCN1CCOCC1 [ACY-1035],"RFU, SLC1A5",252.35 RFU
